Reference: patent US20040023924A1, “Use of xyloglucan polymers and oligomers, and derivative compounds, as phytosanitary products and biofertilizers” (priority 2000, published 2004)

Columns and labels:
[1] = test system: Rubus fruticosus protoplasts; assay: Elicitation of an oxidative burst: generation of H2O2 (pyranine quenching); assay type: cell-based; conditions: 25° C.
Protocol: Preparation of Rubus fruticosus protoplasts according to Vargas-Rechia (1998). The protoplast yield is of the order of 70 to 85% of the initial number of cells used; the viability of the protoplasts, of the order of 90 to 95%, was checked using Evans blue indicator.
H2O2 assay according to Apostol et al. (1989). Incubation at different temperatures of 1.10^6 protoplasts in microplate wells in the presence of 2 μM pyranine λex 405 nm, λcm 512 nm), of the elicitor (0 to 100 μM): 2′-fucosyl-lactose (compound A), xyloglucan XXFGol, corresponding to the reduced form of fucosylated nonasaccharide of which the sugar X4 is in reduced form (compound B). The variations in pyranine fluorescence (ΔF512 min^−1) allow H2O2 assay.
Evaluation of the experimental data: The reaction rate is given by (ΔF512 min^−1). At least three kinetic curves are plotted per sample and per experimental condition. One point on the graph corresponds to the slope of the regression curve deduced from at least 6 kinetic curves.
The oxidative “burst” is evaluated according to the “quenching ” of the pyranine at 25° C.; the 100% reference value corresponds to the fluorescence in the controls (non-elicited protoplast suspensions)

[2] = test system: glutathione-reductase (EC 1.6. 4.2); assay: Elicitation of glutathione-reductase activity in protoplasts; assay type: cell-based, Rubus fruticosus L.; conditions: for Optimal glutathione reductase elicitation response (100% = non-elicited controls): at the optimal dose
Excerpt: Preparation of Rubus fruticosus L. protoplasts according to Vargas-Rechia et al. (1998). The protoplast yield is of the order of 70 to 85% of the initial number of cells used; the viability of the protoplasts, of the order of 90 to 95%, was checked using Evans blue indicator.
Glutathione-reductase (GR) activity assay according to Jahnke L S et al. (1991):
GSSG (glutathione in oxidized form) is reduced to GSH (glutathione in reduced form) by the enzyme glutathione-reductase (EC 1.6. 4.2); the reaction is coupled with the oxidation of NADPH to NADP in the catalytic cycle (glutathione, glutathione-reductase, NADPH). The glutathione-reductase activity is measured by evaluating the formation of NADP in the medium, which is carried out by monitoring the absorbance reduction at 340 nm.
Test: 4.10^6 protoplasts in 1 ml of Tris-HCl buffer (pH 4.8) are incubated at 10° C., 15° C., 25° C. in the presence of the elicitor (0 to 100 μM): 2′-fucosyl lactose (compound A), xyloglucan XXFGol (compound B). After interaction for 10 minutes, an enzymatic extract is prepared according to Jahnke et al. (1991), and a 16.000 g aliquot of the supernatant (equivalent to 1 μg of proteins) is introduced into the pH 7.8 reaction medium (80 mM K2PO4, 500 μM GSSG, 150 μM NADPH, 200 μM DTPA) for the glutathione-reductase activity assay; the A340 recording is carried out for 1 minute using a Beckman D U 640 spectrophotometer.
Evaluation of the experimental data: The reaction rate is given by ΔA340 min^−1. At least three kinetic curves are plotted per experimental condition and per sample. One point on the graph corresponds to the value of the slope of the regression curve deduced from at least 6 kinetic curves.
The elicitation response is evaluated by measuring the formation of NADP at 340 nm. The 100% reference value corresponds to the NADP content in the controls (non-elicited protoplast suspensions).

Elicitor dose of optimal glutathione reductase elicitation response ([2]; 10° C.): 25 nM
Optimal glutathione reductase elicitation response (100% = non-elicited controls) ([2]; 10° C.): 2500%
Elicitor dose of optimal glutathione reductase elicitation response ([2]; 15° C.): 100 nM
Optimal glutathione reductase elicitation response (100% = non-elicited controls) ([2]; 15° C.): 780%
Glutathione reductase elicitation response ([2]; 25° C.): no significant response
SMILES: C[C@@H]1O[C@@H](O[C@H]2[C@H](O[C@H]3[C@H](O)[C@@H](O)[C@H](O)O[C@@H]3CO)O[C@H](CO)[C@H](O)[C@@H]2O)[C@@H](O)[C@H](O)[C@@H]1O [compound A, α-L-Fuc(1→2)β-D-Gal(1→4)β-D-Glc]
Peroxide accumulation, effect of temperature ([1]; 10 nM, 20° C., 15° C., 10° C.): lower at a low temperature
Elicitor dose of optimal response, generation of H2O2 ([1]; pyranine quenching): 10 nM
Optimal response, generation of H2O2 (100% = non-elicited controls) ([1]; at the optimal dose): 225%
